# Laboratory results reported in patent publication US20150368248A1, “2-SUBSTITUTED-6-BIARYLMETHYLAMINO-9-CYCLOPENTYL-9H-PURINE DERIVATIVES, USE THEREOF AS MEDICAMENTS, AND PHARMACEUTICAL COMPOSITIONS” (UNIVERZITA PALACKEHO V OLOMOUCI, priority 2013, published 2015).
# pIC50: −log10 of the molar value.
# Key:
# DEN-induced hepatoma = assay: Diethylnitrosamine-induced liver cancer and drug intervention; assay type: in vivo, C57BL/6J mice; settings: 3 cycles of 10 days, i.p., breaks of 7 days
# Protocol: To initiate tumor development in the liver, 14-day-old C57BL/6J mice were intraperitoneally injected with a single dose of diethylnitrosamine (DEN, 25 mg/kg). After 8 month, pharmacological intervention was administrated in DEN-induced mice by 3 cycles of treatment with compounds for 10 days and a release from compounds for 7 days between the cycles. Either 5 mg/kg BA-12 or 1 mg/kg BP-14 was intraperitoneally injected in 100 μl of 0.01% DMSO. Control mice obtained 100 μl solvent only. Thereafter, mice were sacrificed and livers were fixed in 4% formaldehyde. Two researchers independently scored the diameters of neoplasia that could be monitored at the liver surface. Cancerous nodules with a diameter of up to 1 cm, covering more than 97% of all visible hepatomas, were included into the analysis. […] All animal experiments were performed according to the Austrian guidelines for animal care and protection.
# HepG2 or PLC cells = assay: BrdU incorporation in cultured cells; assay type: cell-based, human; settings: 1 μM, 24 hours
# Protocol: (§1) BrdU incorporation into cell nuclei directly indicates cell proliferation. Cultured cells were grown in medium containing 10 μM 5-bromo-2′-deoxy-uridine (BrdU) for 1 hour. After removing labeling medium, cells were fixed and DNA denatured with a fixing/denaturing solution containing 2 M HCl for 30 minutes at 37° C. To analyze BrdU incorporation in vivo, 200 μl Ringer solution containing 1 mg BrdU was intraperitoneally injected into xenografted mice 2 hours prior to analysis. Mice were sacrificed and tumor tissue was fixed in 4% formaldehyde and processed for immunohistochemistry. The incorporation of BrdU into cellular DNA was detected using a monoclonal anti-BrdU antibody (Sigma, St. Louis, USA) followed by incubation with a peroxidase-conjugated secondary antibodies (Calbiochem, LaJolla, USA) at dilutions of 1:10,000.
# [1] = system: HepG2- and PLC-derived tumors; assay: Xenografted tumor formation and drug intervention; assay type: in vivo
# Protocol: as §1
# (§2) 5×10^6 human hepatoma cells were re-suspended in 100 μl Ringer solution and subcutaneously injected into severe combined immunodeficient (SCID) mice (Harlan Laboratories, San Pietro, Italy). Tumor volume was determined as described (36). Pharmacological intervention was performed in tumor-bearing mice for 17 days by daily intraperitoneal injection of either 5 mg/kg BA-12 or 1 mg/kg BP-14 in 100 μl of 0.01% DMSO. Control tumor-bearing mice were daily intraperitoneally injected with 100 μl of 0.01% DMSO only. All animal experiments were performed according to the Austrian guidelines for animal care and protection.
# (§3) Mice were sacrificed and tumors were fixed as described (37). 4 μm thick, paraffin-embedded sections were stained with hematoxylin and eosin (H&E). For immunohistochemistry, sections were stained with anti-BrdU (Sigma, St. Louis, USA), 1:200. Biotinylated secondary antibodies were used at 1:200. The immunoperoxidase procedure was performed using a Vectastain Elite ABC kit (Vector Laboratories, CA, USA) as described by the manufacturer.
# [2] = Xenografted tumor formation and drug intervention; assay type: in vivo; settings: SCID, mouse, in vivo, ip; mice, intraperitoneal; read-out: maximum tolerated dose (MTD)
# Protocol: as §1, §2, §3
# [3] = system: HepG2, PLC and Hep3B cells; assay: Analysis of proliferation (cell counter); assay type: cell-based, human; settings: 0.2 μM
# Protocol: 6×10^4 cells were seeded on 12-well plates and incubated with inhibitors at different concentrations for 3 days. Cell numbers were determined at various time points after trypsinization using a cell counter (CASY, Scharfe Systems, Reutlingen, Germany). Three independent experiments were performed in triplicates.
# [4] = system: primary human hepatocytes (PHHs); assay: MTT cell viability assay (Example 40); assay type: cell-based; settings: Hepatocyte
# Protocol: Non-neoplastic tissue samples from liver resections were obtained from patients undergoing partial hepatectomy for metastatic liver tumors of colorectal cancer. Experimental procedures were performed according to the guidelines of the charitable state controlled foundation HTCR (Human Tissue and Cell Research, Regensburg, Germany), with the informed patient's consent approved by the local ethical committee of the University of Regensburg. PHHs were isolated using a modified two-step EGTA/collagenase perfusion procedure as described previously (33). Viability of isolated PHHs was determined by trypan blue exclusion and cells with a viability of more than 85% were used for further work. Cells were plated on collagen-coated plates (BD Biosciences, San Jose, USA) at a density of 1.2×10^5 cells/cm^2. The medium consisted of DMEM with 10% FCS, 2 mM L-glutamine, […], 100 U/ml penicillin and supplements as follows: 125 mU/ml insulin, 7.3 ng/ml glucagon and 0.8 μg/ml hydrocortisone. Cells were incubated at 37° C. in a humidified incubator with 5% CO2 and media were changed daily.
# Cell viability was determined using the 3-(4,5 dimethylthiazol-2-yl)-2,5-diphenyltetrazolium bromide (MTT) assay. Briefly, cells were seeded in triplicates at a density of 6×10^3 cells per well. […] The absorbance was measured at 620 nm by employing a microplate reader (Asys HiTech, Salzburg, Austria). […]
smiles,measurement,setting,value
"NC1CCC(Nc2nc(NCc3ccc(-c4ccco4)nc3)c3ncn(C4CCCC4)c3n2)CC1 (centres unmarked) [BP14, N^2-(4-amino-cyclohexyl)-9-cyclopentyl-N^6-(6-furan-2-yl-pyridin-3-ylmethyl)-9H-purine-2,6-diamine]",decrease of tumor nodules as compared to untreated control mice,DEN-induced hepatoma,1.3 fold
same,decrease of BrdU incorporation as compared to control,HepG2 or PLC cells,more than 2 fold
same,decrease of S-phase-positive cells by BrdU incorporation in tumors,[1]; HepG2- and PLC-derived tumors,2 fold
same,tumor volumes of xenografts,"[1]; HepG2 and PLC xenografts, 1 mg/kg daily i.p., 17 days",strongly reduced tumor volumes
same,PLC tumors,"[1]; PLC xenograft, 1 mg/kg daily i.p., 17 days",regression of PLC tumors
same,MTD at 17 days,[2],1 mg/kg
same,proliferation kinetics,[3],cytostatic effect
same,pIC50,[4],4.70
